From patent publication US20260183302A1, “PDK1 REGULATORY COMPOUND AND COMPOSITION CONTAINING THE SAME” (PROVIBIO CO., LTD., priority 2024, published 2026) come the findings set out here.

Experiment [1] concerns HCT-116 colon cancer cell lines. As to the kind of experiment: Matrigel Invasion Assay on HCT-116 colon cancer cell line. As to conditions: HCT-116, Matrigel, 24 hours treatment, vs DMSO. The experiment is classed as cell-based, human. Here is the method: To evaluate the metastasis inhibitory efficacy of the compounds of the present invention on HCT-116 colon cancer cell lines, an Invasion Assay using Matrigel was performed to assess the cells' invasion ability.
First, Matrigel was thawed on ice in RPMI-1640 medium without FBS, then diluted with DMEM at a ratio of 1:20.
The diluted Matrigel mixture was applied to the upper chamber at 100 μl per well, and 750 μl of RPMI-1640 without FBS was added to the lower chamber.
The plates were then incubated at 37° C. for 1 hour to allow the Matrigel to solidify.
After coating, the Matrigel mixture in the upper chamber was removed using a pipette, and the chamber was washed with RPMI without FBS.
Human-derived colorectal cancer cell line HCT-116, obtained from the Korean Cell Bank, was cultured in RPMI-1640 medium containing 10% FBS.
Following stabilization, the cells were harvested using Trypsin-EDTA treatment, centrifuged at 1,200 rpm for 3 minutes, the supernatant was removed, and the cells were resuspended in the same medium, the medium in the lower chamber was replaced with 750 μl of RPMI-1640 supplemented with 10% FBS, and the cells were seeded into the upper chamber at a density of 5×10^4 cells/well.
The cells were cultured for 24 hours after attachment, and then the compounds according to the present invention (G078, G085, G086, G088, G089, PBK-2024-010, PBK-2025-010, PBK-2025-013, PBK-2025-016) and the control substance DMSO were diluted and added to the upper chamber after removing the medium.
Additionally, the medium in the lower chamber was replaced with fresh RPMI-1640 containing FBS, and the culture was continued.
After an additional 24 hours, the medium was removed, and 1 ml of methanol was added for 10 minutes to fix the cells.
Subsequently, 1 ml of Hematoxylin was added and reacted for 5 minutes, followed by 1 ml of Eosin, which was reacted for 30 seconds. The sample was then washed with distilled water (DW).
After staining was complete, any remaining cells in the upper chamber were removed. Finally, the infiltrated cells were observed under a microscope, photographed, and the degree of infiltration was analyzed.

In the next experiment the test system is MRL/lpr mice. Nature of the experiment: Systemic lupus erythematosus animal model (MRL/lpr). The experiment is classed as in vivo, MRL/MpJ-Faslpr/J mice. The source says: The MRL/MpJ-Faslpr/J (hereinafter referred to as “MRL/lpr”) used in this experiment is one of the representative animal models for systemic lupus erythematosus (SLE), known to produce various autoantibodies, including antinuclear antibodies, due to the lpr (lymphoproliferation) gene.
In this invention, the period up to 9 weeks of age was considered the pre-disease stage, and the period after 23 weeks of age was considered the post-disease stage, and efficacy verification experiments using this model were conducted.
Subsequently, female and male MRL/lpr mice were mated at a ratio of 2:1 in the same facility, and the female offspring were administered the compound GO15F of the present invention or vehicle at a dose of 30 mg/kg once daily via intraperitoneal injection or oral administration from the age of 10 weeks until 23 weeks of age.
Urine samples were collected once a week from each individual and used for analytical experiments.
At 23 weeks of age, necropsy was performed on each MRL/lpr mouse, and serum, kidneys, and spleens were isolated and used for analytical experiments. […]
The concentration of anti-nuclear antibodies (Anti-dsDNA Ab) was measured using the ‘Mouse Anti-dsDNA IgG ELISA Kit (Alpha Diagnostic International, Cat. #5120)’ on serum isolated at the time of necropsy in the lupus animal model.
Each mouse serum was diluted to a final concentration of 1/5000 with Working Sample Diluent (WSD) and Low NSB Sample Diluent (LNSD), followed by adding 100 μl of the diluted serum to wells coated with anti-dsDNA and incubating at room temperature for 60 minutes.
The serum separated at the time of necropsy of the lupus animal model was analyzed using the ‘IgG (Total) Mouse Uncoated ELISA Kit (Invitrogen, Cat. #88-50400)’ to measure the concentration of total IgG.
To investigate the effect of GO15F administration on changes in the ratio of immune cells in the spleen of a lupus animal model, the spleens of mice administered each compound were excised, cells were extracted, and the cells were suspended in MACS buffer (autoMACS Washing Solution, Miltenyi Biotec., Cat. #130-092-987).
For flow cytometry analysis, FACS tubes (5 mL round tubes, Falcon, Cat. #352052) were used. To prevent non-specific binding of antibodies, 1 μg/mL of anti-mouse CD16/CD32 (In VivoPlus anti-mouse CD16/CD32, BioXCell, Cat. #BP0307) for 30 minutes to prevent non-specific binding of the antibody, then centrifuge at 1,500 rpm for 5 minutes and resuspend in 100 μL of MACS buffer.
For B cells, each FACS tube was stained with 1 μg/mL of FITC-conjugated anti-B220 antibody (eBioscience™, Cat. #11-0452-81) at 4° C. for 30 minutes, then washed with 2 mL of MACS buffer.
For T cells, each FACS tube was stained with 1 μg/mL PerCP-Cy5.5-conjugated anti-CD3 (Biolegend, Cat. #100218) at 4° C. for 30 minutes.
For macrophages, each FACS tube was stained with 1 μg/mL of PE-conjugated anti-CD11b antibody (Biolegend, Cat. #101207) and PerCP-Cy5.5-conjugated anti-F4/80 (Biolegend, Cat. #123128) and incubated at 4° C. for 30 minutes. The tubes were then washed with 2 mL of MACS buffer. […]
The synthesized cDNA from each mouse was quantified to a concentration of 50 ng using a micro-quantitative spectrophotometer, and qPCR was performed for the cytokines ‘IL-2, IL-6, IL-10, IL-17, TNF-α, IFN-γ’ using a SYBR green probe (CFX96, BIO-RAD).
To investigate the effects of drug administration on renal tissue in MRL/lpr mice, the tissue was fixed in 10% neutral buffered formalin at room temperature, followed by stepwise ethanol penetration for dehydration. The tissue was then embedded in xylene and paraffin.
The blocked tissues were sectioned into 4 μm thick slices using a microtome, followed by deparaffinization, hydration, and staining.
Hematoxylin & Eosin staining, PAS staining, and Masson trichrome staining were performed for pathological evaluation of the tissues. […]

Setting [2] is: serum at necropsy, ELISA, vs control group.

For the compound “12-[4-(2,2-dimethylmorpholin-4-yl)]dodecyl-N-(6-aminopurine-2-yl) carboxamide [Compound 11]”, the “number of infiltrated cells (invasion)” value in experiment [1] is given as “reduction in the number of infiltrated cells”.

`Nc1ncccc1C(=O)NCCCCCCCCCCCCF` [Compound 57, 2-Amino-N-(12-fluoro-dodecyl)-nicotinamide]: the “protein concentration in urine” value with MRL/lpr mice (30 mg/kg once daily, vs control group) was “significantly lower”. Moreover, the “renal pathological tissue staining (glomeruli)” value with MRL/lpr mice (H&E, PAS, Masson trichrome) was “glomerular capillary loops were well maintained”. Moreover, the “immune cells in the spleen (B cells, T cells, macrophages)” value with MRL/lpr mice (flow cytometry (B220, CD3, CD11b/F4/80)) is “reduced the increased B cells, T cells, and macrophages”. Also, the “IgG deposition in kidney tissue” value in the experiment with MRL/lpr mice (immunofluorescence staining, vs control group) is “significantly lower”. In addition, in the experiment with MRL/lpr mice (setting [2]), the “concentration of anti-dsDNA IgG in the blood” value was “significantly lower” and the “total IgG concentration in the blood” value is given as “significantly lower”.
